- melting point: 275 to 277 °C
Structure (SMILES): C[C@@H]1CN(Cc2ccc(F)cc2)CCN1C(=O)/C=C/c1ccc(Cl)cc1NC(=O)N1CCNC1=O [Example 11, 2-Oxo-imidazolidine-1-carboxylic acid (5-Chloro-2-[(E)-3-[(R)-4-(4-fluoro-benzyl)-2-methyl-piperazin-1-yl]-3-oxo-propenyl]-phenyl)-amide]

From patent US7645760B2, “1-(4-Benzyl-piperazin-1-yl)-3-phenyl-propenone derivatives” (Novartis AG., priority 2002, dated 2010)
